Patent US8906351B2, “2,2′-furoin derivatives and use thereof to light skin” (Merck Patent GmbH, priority 2010, dated 2014)

Tests used:
[1] = tested on: B16V mouse melanoma cells; assay: B16V mouse melanoma cell test, melanin content after alpha-MSH stimulation; format: cell-based; conditions: DMSO blank = 100, DMSO + alpha-MSH = 235
Method: B16V mouse melanoma cells (manufacturer: DSMZ; Article No.: ACC370) are transferred into RPMI medium (Invitrogen, Article No.: 31870), to which 10% of FBS (foetal bovine serum; Invitrogen, Article No.: 10499044), 2 mM L-glutamine (Invitrogen, Article No: 25030) and 1 mM sodium pyruvate (Invitrogen, Article No.: 11360) had additionally been added, and incubated at 37° C. and 5% CO2 for 72 h. The medium is separated off, and the cells are washed once with 10 ml of DPBS (Dulbecco's phosphate-buffered salines; Invitrogen, Article No.: 14190), and the medium is subsequently removed by suction. 1 ml of HyQtase cell detachment solution (Hyclone, Article No.: SV30030.01) is added to the cells. The bottle is swirled a number of times, and the HyQtase cell detachment solution is subsequently removed by suction. The cells are then incubated in the incubator at 37° C. and 5% CO2 for 5 min. The cells are taken up in the modified RPMI medium (see above), and the cell count is determined. To this end, the cells are stained with Trypan Blue and counted in a Neubauer counting chamber. The cells are subsequently sown out again in the modified RPMI medium (see above) in a defined cell count of 80,000 cells per well (6-well clear plate, TCT, PS (Nunc)).
The cells are incubated at 37° C. and 5% CO2 for 24 h, the medium is then removed. 1980 μl of the substance dilution are subsequently added. […]
After the final incubation period, the medium is removed by suction, and the cells are washed with 1000 μl of DPBS (Invitrogen, Article No.: 14190). […] The cell count is subsequently determined. To this end, the cells are stained with Trypan Blue and counted in a Neubauer counting chamber. […] Four times 200 μl per cup (as quadruple determination) are subsequently pipetted into a 96-well plate (VWR, Article No.: 4100636981), and the absorption at a wavelength of 405 nm is determined (Safire, Tecan). The content of melanin can be determined in this way by means of a calibration line.

[2] = tested on: normal human epidermal melanocytes (NHEM); assay: Melanogenesis assay with human primary cells; format: cell-based; conditions: 10 days incubation, DMSO control = 100, concentration not given
Method: An ampoule of normal human epidermal melanocytes (NHEM, Promocell) is thawed and divided into further bottles depending on the number of their duplicates. After 2 to 3 weeks, between 750,000 and one million cells are transferred into T25 bottles with 5 ml of full medium. After 24 hours, the medium is removed and replaced by corresponding substance dilutions or controls. The overall duration of the incubation of the various test substances on the cells is 10 days. During these 10 days, the substance dilutions or controls are replaced every 2-3 days. After 10 days, the melanocytes are harvested. 500 μl of trypsin/EDTA is added to the cells and immediately removed again by suction. The cells are subsequently taken up in medium, counted and centrifuged off. The supernatant is removed, the pellet is washed with DPBS and centrifuged again. A photo of this pellet is taken. The pellet is then taken up in 1 ml of NaOH (1 M) and incubated in a shaker at 80° C. for one hour. The solution, cooled to room temperature, is pipetted into a 96-well plate (4×200 μl), and the absorption at 405 nm is measured. The values measured are subsequently plotted in percent against the control.

Structure (SMILES)	Relative melanin content in % ([1]; 0.05 mM + alpha-MSH (10^-8 M))	Relative melanin content in % ([1]; 0.1 mM + alpha-MSH (10^-8 M))	Relative melanin content in % [2]	Relative melanin content in % ([1]; 1 mM + alpha-MSH (10^-8 M))
O=C(c1ccco1)C(O)c1ccco1 (stereo not shown) [2,2′-Furoin, 2,2′-furoin]	88.0%	63.1%	72.9%	–
O=c1cc(CO)occ1O [Kojic acid, reference compound]	–	–	–	96%
